Data as given in ChEMBL document CHEMBL4311943, “3-[(1S,2S,3R)-2,3-Difluoro-1-hydroxy-7-methylsulfonylindan-4-yl]oxy-5-fluorobenzonitrile (PT2977), a Hypoxia-Inducible Factor 2α (HIF-2α) Inhibitor for the Treatment of Clear Cell Renal Cell Carcinoma” (J Med Chem, 2019).
Calls of active or inactive are those of the source. No cut-off for these calls is given here.

What was measured:
[1] = target: Mitogen-activated protein kinase 1 (Homo sapiens) (UniProt P28482); experiment: Activity at human MAPK1 at 10 uM
[2] = target: Prostaglandin E2 receptor EP2 subtype (Homo sapiens) (UniProt P43116); experiment: Activity at human Prostanoid EP2 receptor at 10 uM
[3] = Half life in patient with advanced solid tumor at 40 mg, po administered once daily measured on day 15; format: ADME, organism-based; details: human, in vivo
[4] = target: P2Y purinoceptor 1 (Homo sapiens) (UniProt P47900); experiment: Activity at human P2Y1 receptor at 10 uM
Homo sapiens = experiment: In vivo inhibition of HIF-2alpha in po dosed patient with advanced solid tumor assessed as reduction in EPO expression administered once daily; format: organism-based
[5] = target: Protein kinase C zeta type (Homo sapiens) (UniProt Q05513); experiment: Activity at human PKCzeta at 10 uM
[6] = Protein binding in mouse plasma at 10 uM measured after 4 hrs by LC-MS/MS analysis; format: ADME, cell-free; details: read-out: PPB (converted)
[7] = target: C-C chemokine receptor type 2 (Homo sapiens) (UniProt P41597); experiment: Activity at human CCR2B receptor at 10 uM
[8] = target: Mitogen-activated protein kinase 1 (Homo sapiens) (UniProt P28482); experiment: Activity at human MAPK2 at 10 uM
[9] = target: Endothelin-1 receptor (Homo sapiens) (UniProt P25101); experiment: Activity at human ETA receptor at 10 uM
[10] = target: Histamine H1 receptor (Homo sapiens) (UniProt P35367); experiment: Activity at human H1 receptor at 10 uM
[11] = target: Calcium/calmodulin-dependent protein kinase type II subunit delta (Homo sapiens) (UniProt Q13557); experiment: Activity at human CAMK2D at 10 uM
[12] = target: Alpha-1A adrenergic receptor (Homo sapiens) (UniProt P35348); experiment: Activity at human alpha1A receptor at 10 uM
[13] = AUClast in patient with advanced solid tumor at 240 mg, po administered once daily measured on day 15; format: ADME, organism-based; design: dose 240 mg, time 0 - last, route oral; details: human, in vivo
[14] = target: Vasopressin V1a receptor (Homo sapiens) (UniProt P37288); experiment: Activity at human V1A receptor at 10 uM
[15] = target: Potassium voltage-gated channel subfamily A member 5 (Homo sapiens) (UniProt P22460); experiment: Activity at human Kv1.5 at 10 uM
[16] = target: D(2) dopamine receptor (Homo sapiens) (UniProt P14416); experiment: Activity at human D2L receptor at 10 uM
[17] = target: B2 bradykinin receptor (Homo sapiens) (UniProt P30411); experiment: Activity at human bradykinin B2 receptor at 10 uM
Cytochrome P450 2D6 = Cytochrome P450 2D6 (Homo sapiens, UniProt P10635); experiment: Inhibition of CYP2D6 in human liver microsomes up to 50 uM using dextromethorphan as substrate measured after 10 mins in presence of NADPH by LC-MS/MS analysis; format: ADME
[18] = target: Receptor-type tyrosine-protein kinase FLT3 (Homo sapiens) (UniProt P36888); experiment: Activity at human Flt3 at 10 uM
[19] = AUClast in patient with advanced solid tumor at 80 mg, po administered once daily measured on day 15; format: ADME, organism-based; design: dose 80 mg, route oral, time 0 - last; details: human, in vivo
[20] = Drug level in plasma of SCID Beige mouse xenografted with human 786-O cells at 3 mg/kg, po administered twice daily via gavage for 3 days measured 12 hrs post-last dose; format: ADME, organism-based
[21] = target: Lysophosphatidic acid receptor 3 (Homo sapiens) (UniProt Q9UBY5); experiment: Activity at human LPA3 receptor at 10 uM
[22] = target: C-C chemokine receptor type 1 (Homo sapiens) (UniProt P32246); experiment: Activity at human CCR1 receptor at 10 uM
[23] = Clearance in monkey at 1 mg/kg, iv by UPLC-MS analysis; format: ADME, organism-based, Macaca mulatta; details: rhesus monkey, in vivo
[24] = Cmax in patient with advanced solid tumor at 160 mg, po administered once daily measured on day 15; format: ADME, organism-based; design: dose 160 mg, route oral; details: human, in vivo
[25] = target: Muscarinic acetylcholine receptor M3 (Homo sapiens) (UniProt P20309); experiment: Activity at human M3 receptor at 10 uM
[26] = target: Tyrosine-protein kinase Lyn (Homo sapiens) (UniProt P07948); experiment: Activity at human Lyn at 10 uM
[27] = target: RAC-beta serine/threonine-protein kinase (Homo sapiens) (UniProt P31751); experiment: Activity at human PKBbeta at 10 uM
[28] = Volume of distribution at steady state in Beagle dog at 1 mg/kg, iv by UPLC-MS analysis; format: ADME, organism-based, Canis lupus familiaris; details: in vivo, read-out: Vdss
[29] = Half life in Sprague-Dawley rat at 1 mg/kg, iv by UPLC-MS analysis; format: ADME, organism-based; details: in vivo
[30] = target: Beta-1 adrenergic receptor (Homo sapiens) (UniProt P08588); experiment: Activity at human beta1 receptor at 10 uM
[31] = target: 5-hydroxytryptamine receptor 2A (Homo sapiens) (UniProt P28223); experiment: Activity at human 5-HT2A receptor at 10 uM
[32] = target: CDK9/cyclin T1 (Homo sapiens) (UniProt O60563+P50750); experiment: Activity at human CDK9/cyclinT1 at 10 uM; format: protein-complex assay
[33] = target: Neuropeptide Y receptor type 2 (Homo sapiens) (UniProt P49146); experiment: Activity at human NPY2 receptor at 10 uM
[34] = target: T1, UDP-glucuronosyltransferase 2B17 (Homo sapiens, UniProt O75795); experiment: Substrate activity at recombinant human UGT2B17 expressed in baculovirus infected insect cell membranes assessed as enzyme-mediated glucuronidation by measuring Vmax per mg protein at 50 uM preincubated for 5 mins followed by UDPGA addition and measured after 60 mins by LC-MS/MS analysis; format: ADME; details: 1 h
T1 sequence (O75795 whole entry): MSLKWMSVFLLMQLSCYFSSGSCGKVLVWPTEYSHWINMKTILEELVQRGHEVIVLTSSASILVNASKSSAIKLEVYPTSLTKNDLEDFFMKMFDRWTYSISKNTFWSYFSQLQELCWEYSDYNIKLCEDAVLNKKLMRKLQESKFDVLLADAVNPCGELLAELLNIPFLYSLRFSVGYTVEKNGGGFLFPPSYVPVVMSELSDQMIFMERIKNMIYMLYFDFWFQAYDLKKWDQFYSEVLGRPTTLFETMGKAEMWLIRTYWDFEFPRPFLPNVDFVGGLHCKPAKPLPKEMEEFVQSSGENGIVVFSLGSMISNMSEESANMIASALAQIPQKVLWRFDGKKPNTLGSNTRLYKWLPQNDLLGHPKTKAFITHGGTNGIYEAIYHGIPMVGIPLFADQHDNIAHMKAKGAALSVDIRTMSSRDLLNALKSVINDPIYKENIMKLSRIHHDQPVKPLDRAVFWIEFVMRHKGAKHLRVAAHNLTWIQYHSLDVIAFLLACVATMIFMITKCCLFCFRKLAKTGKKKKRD

[35] = Cmax in patient with advanced solid tumor at 20 mg, po administered once daily measured on day 15; format: ADME, organism-based; design: dose 20 mg, route oral; details: human, in vivo
[36] = target: Vasoactive intestinal polypeptide receptor 1 (Homo sapiens) (UniProt P32241); experiment: Activity at human VPAC1 long isoform at 10 uM
Vasoactive intestinal polypeptide receptor 1 (Homo sapiens), sequence (P32241 whole entry, canonical isoform): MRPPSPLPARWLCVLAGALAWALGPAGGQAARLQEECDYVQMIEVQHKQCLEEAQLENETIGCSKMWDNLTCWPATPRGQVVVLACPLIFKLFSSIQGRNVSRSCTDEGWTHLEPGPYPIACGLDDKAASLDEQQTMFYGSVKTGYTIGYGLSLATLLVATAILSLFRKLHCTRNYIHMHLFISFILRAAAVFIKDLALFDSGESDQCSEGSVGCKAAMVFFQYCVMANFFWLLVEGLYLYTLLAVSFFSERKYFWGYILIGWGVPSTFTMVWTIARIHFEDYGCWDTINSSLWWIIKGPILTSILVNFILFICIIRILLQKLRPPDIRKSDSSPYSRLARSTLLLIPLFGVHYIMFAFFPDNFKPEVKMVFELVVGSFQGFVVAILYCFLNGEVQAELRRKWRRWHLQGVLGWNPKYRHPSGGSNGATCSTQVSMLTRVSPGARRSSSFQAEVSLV

Mitogen-activated protein kinase 1 (Homo sapiens), sequence (P28482 whole entry): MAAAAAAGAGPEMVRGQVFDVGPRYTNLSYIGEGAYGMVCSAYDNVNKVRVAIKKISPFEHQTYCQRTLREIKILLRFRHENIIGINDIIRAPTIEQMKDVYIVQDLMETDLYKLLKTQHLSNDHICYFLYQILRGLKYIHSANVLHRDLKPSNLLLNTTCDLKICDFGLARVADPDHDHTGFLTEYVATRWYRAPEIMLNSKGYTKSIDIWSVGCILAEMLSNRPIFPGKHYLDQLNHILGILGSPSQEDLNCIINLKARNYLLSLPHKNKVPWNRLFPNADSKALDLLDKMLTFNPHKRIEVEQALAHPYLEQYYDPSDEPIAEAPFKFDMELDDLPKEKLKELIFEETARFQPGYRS
D(2) dopamine receptor (Homo sapiens), sequence (P14416 whole entry): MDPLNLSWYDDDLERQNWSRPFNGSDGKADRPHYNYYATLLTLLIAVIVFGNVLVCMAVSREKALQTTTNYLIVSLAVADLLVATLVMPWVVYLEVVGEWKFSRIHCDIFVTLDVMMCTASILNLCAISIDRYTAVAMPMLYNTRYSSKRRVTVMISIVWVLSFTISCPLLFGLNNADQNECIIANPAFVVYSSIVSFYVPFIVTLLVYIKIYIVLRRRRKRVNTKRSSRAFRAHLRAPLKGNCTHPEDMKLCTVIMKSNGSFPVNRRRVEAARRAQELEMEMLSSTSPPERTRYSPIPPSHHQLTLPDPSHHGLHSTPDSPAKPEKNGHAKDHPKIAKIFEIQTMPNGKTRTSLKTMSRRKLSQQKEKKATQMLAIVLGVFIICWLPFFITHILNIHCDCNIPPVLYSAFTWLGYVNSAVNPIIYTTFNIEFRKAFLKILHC
Endothelin-1 receptor (Homo sapiens), sequence (P25101 whole entry): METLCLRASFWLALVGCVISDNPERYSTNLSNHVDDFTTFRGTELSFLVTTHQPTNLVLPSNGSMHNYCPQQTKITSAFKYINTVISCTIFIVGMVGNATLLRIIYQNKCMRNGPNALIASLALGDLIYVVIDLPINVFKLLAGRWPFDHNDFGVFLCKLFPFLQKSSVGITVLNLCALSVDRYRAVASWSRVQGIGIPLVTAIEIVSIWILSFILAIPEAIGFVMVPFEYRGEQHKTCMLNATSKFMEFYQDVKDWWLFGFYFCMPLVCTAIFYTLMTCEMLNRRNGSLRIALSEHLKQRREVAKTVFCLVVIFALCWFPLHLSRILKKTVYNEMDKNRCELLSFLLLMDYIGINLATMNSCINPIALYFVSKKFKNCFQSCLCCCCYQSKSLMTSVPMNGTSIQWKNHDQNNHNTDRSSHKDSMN
Cytochrome P450 2D6, sequence (P10635 whole entry): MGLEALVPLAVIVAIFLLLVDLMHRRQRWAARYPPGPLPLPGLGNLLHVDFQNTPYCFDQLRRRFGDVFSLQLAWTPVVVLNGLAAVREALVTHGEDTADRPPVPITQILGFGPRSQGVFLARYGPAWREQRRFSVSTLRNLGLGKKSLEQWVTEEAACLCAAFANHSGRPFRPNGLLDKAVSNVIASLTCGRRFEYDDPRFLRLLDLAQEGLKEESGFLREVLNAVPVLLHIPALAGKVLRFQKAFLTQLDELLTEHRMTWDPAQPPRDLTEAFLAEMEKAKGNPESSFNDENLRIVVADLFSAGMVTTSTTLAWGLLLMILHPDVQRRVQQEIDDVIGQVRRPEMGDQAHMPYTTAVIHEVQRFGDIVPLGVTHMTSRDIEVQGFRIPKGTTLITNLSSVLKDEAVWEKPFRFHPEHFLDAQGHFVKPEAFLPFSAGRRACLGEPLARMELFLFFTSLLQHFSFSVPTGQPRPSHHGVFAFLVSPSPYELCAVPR
Calcium/calmodulin-dependent protein kinase type II subunit delta (Homo sapiens), sequence (Q13557 whole entry): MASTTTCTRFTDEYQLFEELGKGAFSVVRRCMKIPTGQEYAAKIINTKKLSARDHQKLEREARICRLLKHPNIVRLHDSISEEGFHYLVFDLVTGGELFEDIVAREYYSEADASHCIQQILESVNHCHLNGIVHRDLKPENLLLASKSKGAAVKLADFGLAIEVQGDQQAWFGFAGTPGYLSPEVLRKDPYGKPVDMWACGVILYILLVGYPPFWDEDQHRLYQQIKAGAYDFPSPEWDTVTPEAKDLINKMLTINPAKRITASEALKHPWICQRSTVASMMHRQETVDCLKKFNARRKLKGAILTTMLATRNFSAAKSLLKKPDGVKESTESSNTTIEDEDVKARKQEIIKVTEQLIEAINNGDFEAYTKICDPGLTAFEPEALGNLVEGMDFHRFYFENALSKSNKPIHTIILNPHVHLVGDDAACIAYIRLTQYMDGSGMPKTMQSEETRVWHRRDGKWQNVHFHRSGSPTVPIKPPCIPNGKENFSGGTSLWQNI
Vasopressin V1a receptor (Homo sapiens), sequence (P37288 whole entry, looked up): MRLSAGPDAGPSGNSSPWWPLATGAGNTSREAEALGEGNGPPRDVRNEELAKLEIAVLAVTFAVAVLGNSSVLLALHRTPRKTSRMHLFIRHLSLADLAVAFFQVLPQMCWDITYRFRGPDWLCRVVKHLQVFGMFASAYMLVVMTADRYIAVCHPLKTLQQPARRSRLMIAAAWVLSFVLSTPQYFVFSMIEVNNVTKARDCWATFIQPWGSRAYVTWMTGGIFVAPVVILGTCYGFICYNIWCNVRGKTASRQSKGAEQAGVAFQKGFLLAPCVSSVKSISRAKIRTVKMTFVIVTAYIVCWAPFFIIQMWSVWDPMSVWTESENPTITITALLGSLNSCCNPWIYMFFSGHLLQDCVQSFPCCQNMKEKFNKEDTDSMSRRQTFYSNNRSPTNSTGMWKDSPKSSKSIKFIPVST
Tyrosine-protein kinase Lyn (Homo sapiens), sequence (P07948 2-512 limits assumed): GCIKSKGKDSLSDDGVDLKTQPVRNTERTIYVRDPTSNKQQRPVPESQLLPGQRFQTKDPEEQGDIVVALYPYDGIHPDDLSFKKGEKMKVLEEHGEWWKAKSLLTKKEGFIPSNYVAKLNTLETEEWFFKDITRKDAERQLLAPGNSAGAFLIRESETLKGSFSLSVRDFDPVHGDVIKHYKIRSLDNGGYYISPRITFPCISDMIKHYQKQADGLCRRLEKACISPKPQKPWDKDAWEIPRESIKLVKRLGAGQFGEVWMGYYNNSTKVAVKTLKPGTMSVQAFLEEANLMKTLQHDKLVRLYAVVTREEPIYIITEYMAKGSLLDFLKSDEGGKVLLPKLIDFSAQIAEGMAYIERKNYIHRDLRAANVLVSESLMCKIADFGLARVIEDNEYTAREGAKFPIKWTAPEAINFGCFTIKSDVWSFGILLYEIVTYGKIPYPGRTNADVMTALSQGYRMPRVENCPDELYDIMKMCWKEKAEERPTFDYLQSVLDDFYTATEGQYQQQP
Potassium voltage-gated channel subfamily A member 5 (Homo sapiens), sequence (P22460 whole entry): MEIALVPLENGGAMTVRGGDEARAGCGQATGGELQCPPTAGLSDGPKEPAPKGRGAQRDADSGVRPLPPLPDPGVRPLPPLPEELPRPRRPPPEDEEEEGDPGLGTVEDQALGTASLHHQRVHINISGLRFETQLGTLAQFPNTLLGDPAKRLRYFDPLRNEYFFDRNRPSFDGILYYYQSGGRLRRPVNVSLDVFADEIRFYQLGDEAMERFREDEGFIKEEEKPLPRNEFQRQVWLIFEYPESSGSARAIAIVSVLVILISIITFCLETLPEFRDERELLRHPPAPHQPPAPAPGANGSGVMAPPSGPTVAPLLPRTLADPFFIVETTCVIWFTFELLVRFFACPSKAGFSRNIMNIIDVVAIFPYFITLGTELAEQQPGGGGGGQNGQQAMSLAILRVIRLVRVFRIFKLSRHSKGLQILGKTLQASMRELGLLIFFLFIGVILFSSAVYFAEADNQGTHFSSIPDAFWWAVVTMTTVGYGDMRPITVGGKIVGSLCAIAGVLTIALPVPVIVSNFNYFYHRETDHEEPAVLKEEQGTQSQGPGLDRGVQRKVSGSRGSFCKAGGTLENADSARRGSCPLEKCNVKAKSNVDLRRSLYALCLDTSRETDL
Histamine H1 receptor (Homo sapiens), sequence (P35367 whole entry): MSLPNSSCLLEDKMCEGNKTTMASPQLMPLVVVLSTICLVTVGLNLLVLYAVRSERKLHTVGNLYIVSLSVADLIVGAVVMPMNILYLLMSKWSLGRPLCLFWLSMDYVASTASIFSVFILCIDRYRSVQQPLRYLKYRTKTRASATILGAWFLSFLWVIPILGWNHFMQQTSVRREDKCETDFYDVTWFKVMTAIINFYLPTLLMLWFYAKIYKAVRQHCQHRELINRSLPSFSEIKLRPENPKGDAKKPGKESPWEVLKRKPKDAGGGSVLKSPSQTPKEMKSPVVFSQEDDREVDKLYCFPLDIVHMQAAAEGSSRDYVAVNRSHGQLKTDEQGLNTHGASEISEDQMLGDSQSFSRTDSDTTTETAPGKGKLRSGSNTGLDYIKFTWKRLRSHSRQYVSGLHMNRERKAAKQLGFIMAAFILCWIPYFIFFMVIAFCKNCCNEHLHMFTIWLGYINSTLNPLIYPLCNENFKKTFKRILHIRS

Question: What does the source list for `CS(=O)(=O)c1ccc(Oc2cc(F)cc(C#N)c2)c2c1[C@H](O)[C@H](F)[C@@H]2F` [BELZUTIFAN]?
Answer: Activity [1]: inactive; Activity [2]: inactive; half-life [3]: 18.8 h; Activity [4]: inactive; inhibition (INH) (Homo sapiens): Dose-dependent effect; Activity [5]: inactive; fraction unbound at 4 h, 10 µM [6]: 0.44; Activity [7]: inactive; Activity [8]: inactive; Activity [9]: inactive; Activity [10]: inactive; Activity [11]: inactive; Activity [12]: inactive; AUC(0-t) [13]: 28000 ng·h/mL; Activity [14]: inactive; Activity [15]: inactive; Activity [16]: inactive; Activity [17]: inactive; inhibition (INH) (Cytochrome P450 2D6): Not Active; Activity [18]: inactive; AUC(0-t) [19]: 17500 ng·h/mL; concentration at 12 h [20]: 59 ng/mL; Activity [21]: inactive; Activity [22]: inactive; clearance [23]: 3.5 mL/min/kg; Cmax [24]: 2000 ng/mL; Activity [25]: inactive; Activity [26]: inactive; Activity [27]: inactive; Vd [28]: 1.3 L/kg; half-life [29]: 1.4 h; Activity [30]: inactive; Activity [31]: inactive; Activity [32]: inactive; Activity [33]: inactive; Vmax [34]: 4.7 pmol/min; Cmax [35]: 200 ng/mL; Activity [36]: inactive
